How the values were obtained:
Conditions in all cases: 72 h
MV4-11 [1] = test system: MV4-11
In short: (§1)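 The IC50 was read from log-logistic dose–response fits. Fifteen myeloid leukaemia lines were exposed for 72 h at 37 °C with 5% CO2 to five tenfold doses from 1 to 10,000 nM in duplicate. ATP luminescence, normalised to vehicle and to a 10 µM positive control, was fitted with four parameters.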

K-562 [2] = test system: K-562
In short: as §1

NOMO-1 [3] = test system: NOMO-1
In short: as §1

ML-2 [4] = test system: ML-2
In short: as §1

KCL-22 [5] = test system: KCL-22
In short: as §1

KG-1 [6] = test system: KG-1
In short: as §1

LAMA-84 [7] = test system: LAMA-84
In short: as §1

KU-812 [8] = test system: KU-812
In short: as §1

SHI-1 [9] = test system: SHI-1
In short: as §1

Mono-Mac-6 [10] = test system: Mono-Mac-6
In short: as §1

BV-173 [11] = test system: BV-173
In short: as §1

HL-60 [12] = test system: HL-60
In short: as §1

MOLM-13 [13] = test system: MOLM-13
In short: as §1

THP-1 [14] = test system: THP-1
In short: as §1

HEL [15] = test system: HEL
In short: as §1

MV4-11 [16] = experiment: cell viability (% survival relative to DMSO control, bortezomib = 0%); higher = less cytotoxic
In short: (§2)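 Fifteen myeloid leukaemia cell lines were exposed to compounds at 1, 10, 100, 1000 or 10000 nM in 384-well plates for 72 h at 37 °C and 5% CO2. Viability was read by CellTiter-Glo luminescence and normalised, with vehicle as 100% and a 10 µM positive control as 0%. Values are percent survival averaged over duplicates.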

K-562 [17] = experiment: as above
In short: as §2

NOMO-1 [18] = experiment: as above
In short: as §2

ML-2 [19] = experiment: as above
In short: as §2

KCL-22 [20] = experiment: as above
In short: as §2

KG-1 [21] = experiment: as above
In short: as §2

LAMA-84 [22] = experiment: as above
In short: as §2

KU-812 [23] = experiment: as above
In short: as §2

SHI-1 [24] = experiment: as above
In short: as §2

Mono-Mac-6 [25] = experiment: as above
In short: as §2

BV-173 [26] = experiment: as above
In short: as §2

HL-60 [27] = experiment: as above
In short: as §2

MOLM-13 [28] = experiment: as above
In short: as §2

THP-1 [29] = experiment: as above
In short: as §2

HEL [30] = experiment: as above
In short: as §2

N[C@@H](CC(=O)N1CCn2c(nnc2C(F)(F)F)C1)Cc1cc(F)c(F)cc1F [Sitagliptin]
Conditions	IC50 (cell viability) [µM]
BV-173 [11]	> 10
HEL [15]	> 10
HL-60 [12]	> 10
K-562 [2]	> 10
KCL-22 [5]	> 10
KG-1 [6]	> 10
KU-812 [8]	> 10
LAMA-84 [7]	> 10
ML-2 [4]	> 10
MOLM-13 [13]	> 10
MV4-11 [1]	> 10
Mono-Mac-6 [10]	> 10
NOMO-1 [3]	> 10
SHI-1 [9]	> 10
THP-1 [14]	> 10

cell viability [%]
Conditions	1 nM	10 nM	100 nM	1000 nM	10000 nM
BV-173 [26]	89.5	103	99.9	93.4	102
HEL [30]	90.7	95.3	111	95.4	103
HL-60 [27]	101	95.5	97.1	91.3	95.2
K-562 [17]	93.8	96.9	103	99.7	113
KCL-22 [20]	94	114	106	94.4	92.8
KG-1 [21]	90.9	104	108	95.2	103
KU-812 [23]	94.6	98.9	91.9	95.5	102
LAMA-84 [22]	93.1	99.2	94	102	93.8
ML-2 [19]	90	102	99.3	97.4	97.9
MOLM-13 [28]	95.5	110	92.5	84.3	95.4
MV4-11 [16]	89.2	102	99.3	92.2	101
Mono-Mac-6 [25]	92.5	83.8	96.1	85.6	100
NOMO-1 [18]	99.8	96.9	91.3	101	100
SHI-1 [24]	95.2	104	105	96.8	97.4
THP-1 [29]	97.8	99.7	106	99	97.6

From the supplement of paper PMC8671470
